Test results: US20210317134A1, “UBIQUITIN-SPECIFIC-PROCESSING PROTEASE 7 (USP7) MODULATORS AND USES THEREOF” (RAPT THERAPEUTICS, INC., priority 2019, published 2021)

Target: USP7 (Homo sapiens, UniProt Q93009)
Experiment: USP7 inhibitory potency (Table 1)
Type: biochemical

USP7, sequence (Q93009 whole entry): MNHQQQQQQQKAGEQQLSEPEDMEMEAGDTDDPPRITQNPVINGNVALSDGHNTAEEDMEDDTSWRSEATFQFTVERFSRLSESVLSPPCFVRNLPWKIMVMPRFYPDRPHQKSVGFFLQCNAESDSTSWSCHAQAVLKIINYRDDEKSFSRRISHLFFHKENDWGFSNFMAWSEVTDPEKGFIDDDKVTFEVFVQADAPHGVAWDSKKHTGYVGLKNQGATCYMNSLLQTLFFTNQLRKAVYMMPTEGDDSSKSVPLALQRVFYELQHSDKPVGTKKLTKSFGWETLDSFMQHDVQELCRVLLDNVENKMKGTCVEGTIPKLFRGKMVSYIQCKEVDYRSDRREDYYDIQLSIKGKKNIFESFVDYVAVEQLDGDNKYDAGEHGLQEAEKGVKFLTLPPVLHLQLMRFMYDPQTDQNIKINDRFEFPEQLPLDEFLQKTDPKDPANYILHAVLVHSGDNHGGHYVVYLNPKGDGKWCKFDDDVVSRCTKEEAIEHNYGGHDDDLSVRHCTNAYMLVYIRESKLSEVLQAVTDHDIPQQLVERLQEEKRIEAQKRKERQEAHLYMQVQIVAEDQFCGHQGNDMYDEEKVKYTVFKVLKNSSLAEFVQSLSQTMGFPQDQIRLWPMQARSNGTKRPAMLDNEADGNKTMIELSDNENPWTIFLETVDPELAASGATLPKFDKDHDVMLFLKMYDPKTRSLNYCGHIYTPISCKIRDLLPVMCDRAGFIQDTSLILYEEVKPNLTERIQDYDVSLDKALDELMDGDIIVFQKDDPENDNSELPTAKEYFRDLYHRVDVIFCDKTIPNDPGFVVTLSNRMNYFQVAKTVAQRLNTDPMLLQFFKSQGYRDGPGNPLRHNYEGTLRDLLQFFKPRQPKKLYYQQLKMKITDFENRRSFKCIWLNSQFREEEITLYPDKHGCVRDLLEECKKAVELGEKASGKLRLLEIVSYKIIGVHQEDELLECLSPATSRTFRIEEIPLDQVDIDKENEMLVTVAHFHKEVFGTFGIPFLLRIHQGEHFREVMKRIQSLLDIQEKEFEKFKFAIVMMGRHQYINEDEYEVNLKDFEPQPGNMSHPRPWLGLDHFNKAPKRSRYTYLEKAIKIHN

| SMILES | IC50 [nM] |
| --- | --- |
| COC(=O)NCc1cc2nccc(-c3cc(Cl)cc4c3O[C@@H](c3onc5c3CNCC5)C4)c2s1 [Methyl (R)-((7-(5-chloro-2-(4,5,6,7-tetrahydroisoxazolo[4,3-c]pyridin-3-yl)-2,3-dihydrobenzofuran-7-yl)thieno[3,2-b]pyridin-2-yl)methyl)carbamate] | < 1000 |
| CC(=O)NC(C)c1cc2nccc(-c3cc(Cl)cc4c3O[C@@H](c3c5c(nn3C)CCNC5)C4)c2s1 (stereo partly drawn) [N-(1-(7-((R)-5-chloro-2-(2-methyl-4,5,6,7-tetrahydro-2H-pyrazolo[4,3-c]pyridin-3-yl)-2,3-dihydrobenzofuran-7-yl)thieno[3,2-b]pyridin-2-yl)ethyl)acetamide] | < 1000 |
| CC[C@H](O)c1cc2nccc(-c3cc(Cl)cc4c3O[C@@H](C(=O)N3CCNCC3)C4)c2s1 [((R)-5-chloro-7-(2-((S)-1-hydroxypropyl)thieno[3,2-b]pyridin-7-yl)-2,3-dihydrobenzofuran-2-yl)(piperazin-1-yl)methanone] | < 1000 |
| N#Cc1cc2nccc(-c3cc(Cl)cc4c3O[C@@H](C(=O)N3CCNCC3)C4)c2o1 [(R)-7-(5-chloro-2-(piperazine-1-carbonyl)-2,3-dihydrobenzofuran-7-yl)furo[3,2-b]pyridine-2-carbonitrile] | 1000 to 10000 |
| OC1(c2cc3nccc(-c4cc(Cl)cc5c4O[C@@H](c4onc6c4CNCC6)C5)c3s2)COC1 [(R)-3-(7-(5-chloro-2-(4,5,6,7-tetrahydroisoxazolo[4,3-c]pyridin-3-yl)-2,3-dihydrobenzofuran-7-yl)thieno[3,2-b]pyridin-2-yl)oxetan-3-ol] | < 1000 |

Now from value to compound:

| IC50 [nM] | SMILES |
| --- | --- |
| < 1000 | O=C([C@H]1Cc2cc(Cl)cc(-c3ccnc4cc(Cn5cnccc5=O)sc34)c2O1)N1CCNCC1 [(R)-3-((7-(5-chloro-2-(piperazine-1-carbonyl)-2,3-dihydrobenzofuran-7-yl)thieno[3,2-b]pyridin-2-yl)methyl)pyrimidin-4(3H)-one] |
| < 1000 | CCC(O)c1cc2nccc(-c3cc(Cl)cc4c3OC(c3onc5c3CN(C(C)C)CC5)C4)c2s1 (stereo not drawn) [1-(7-(5-chloro-2-(5-isopropyl-4,5,6,7-tetrahydroisoxazolo[4,3-c]pyridin-3-yl)-2,3-dihydrobenzofuran-7-yl)thieno[3,2-b]pyridin-2-yl)propan-1-ol] |
| 1000 to 10000 | CN1CCc2noc([C@H]3Cc4cc(Cl)cc(-c5ccnc6cc(C#N)ccc56)c4O3)c2C1 [(R)-4-(5-chloro-2-(5-methyl-4,5,6,7-tetrahydroisoxazolo[4,3-c]pyridin-3-yl)-2,3-dihydrobenzofuran-7-yl)quinoline-7-carbonitrile] |
| 1000 to 10000 | NC(=O)C1Cc2nccc(-c3cc(Cl)cc4c3O[C@@H](c3onc5c3CNCC5)C4)c2C1 (stereo partly drawn) [4-((R)-5-chloro-2-(4,5,6,7-tetrahydroisoxazolo[4,3-c]pyridin-3-yl)-2,3-dihydrobenzofuran-7-yl)-6,7-dihydro-5H-cyclopenta[b]pyridine-6-carboxamide] |
| < 1000 | CN(C)[C@@H]1CCN(C(=O)[C@H]2Cc3cc(Cl)cc(-c4ccnc5cc(CO)sc45)c3O2)C1 [((R)-5-chloro-7-(2-(hydroxymethyl)thieno[3,2-b]pyridin-7-yl)-2,3-dihydrobenzofuran-2-yl)((R)-3-(dimethylamino)pyrrolidin-1-yl)methanone] |
| 1000 to 10000 | O=C(C1Cc2cc(Cl)cc(-c3ccnc4[nH]ccc34)c2O1)N1CCC(O)(Cc2ccccc2)CC1 (stereo not drawn) [(4-benzyl-4-hydroxypiperidin-1-yl)(5-chloro-7-(1H-pyrrolo[2,3-b]pyridin-4-yl)-2,3-dihydrobenzofuran-2-yl)methanone] |
| < 1000 | O=C([C@H]1Cc2cc(Cl)cc(-c3ccnc4cc(C(O)(CO)CCl)sc34)c2O1)N1CCNCC1 (stereo partly drawn) [((2R)-5-chloro-7-(2-(1-chloro-2,3-dihydroxypropan-2-yl)thieno[3,2-b]pyridin-7-yl)-2,3-dihydrobenzofuran-2-yl)(piperazin-1-yl)methanone] |
